Reference: publication PMC4454677, “Prolyl Oligopeptidase from the Blood Fluke Schistosoma mansoni: From Functional Analysis to Anti-schistosomal Inhibitors” (PLoS Neglected Tropical Diseases, 2015)
“Also recorded” adds a separate entry of the source. Counter-ions that a name gives are not always drawn. Like-named read-outs stand apart in the source and are kept apart here. Numbered stars: 1 amine (or outer) side, 2 acyl side, 3 side chain; on linkers, the order of the positions; unused ones are H or OH. Square brackets hold non-standard residues; d marks the D form. Peptide text beside a SMILES is read from it. * marks the point of attachment. Sta = CC(C)C[C@H](N)[C@@H](O)CC(=O)O; Isovaleryl = CC(C)CC(=O)*; Cbz = O=C(OCc1ccccc1)*; CO = O=C([*:1])[*:2]; CH2Cl = ClC*

What was measured:
[1] = system: newly transformed schistosomula (NTS); assay: Parasite assay and phenotype scoring with NTS in culture; assay type: cell-based, Schistosoma mansoni; conditions: inhibitors at 10 μM and 1 μM, up to 4 days, grade I most severe
Method: NTS (200–300 parasites) were incubated in 200 μL of Basch Medium 169 and supplements, as described above. Inhibitors were added at final concentrations of 1 or 10 μM (0.5% DMSO final) and the incubations continued for 4 days. Grading of phenotypic responses arising as a function of time and concentration was modified after Jilkova et al.: Grade I, dead NTS by 2 days of culture at 10 μM and dying/dead NTS by 3 days at 1 μM. Grade II, dead NTS by 3 days at 10 μM and round/dark/dying by 3 days at 1 μM; Grade III, round/dark by 3 days at 1 and 10 μM concentrations (S1 Fig). ‘Dead’ was adjudicated as the loss of normal shape and the lack of movement often accompanied by obvious internal disruptions. ‘Dying’ was similar to death except that movement was detectable. Otherwise, the terms ‘round/dark’ were used to indicate less severe but obvious changes in the parasites relative to DMSO controls.

recombinant SmPOP = recombinant SmPOP (Schistosoma mansoni, UniProt A0A5K4EZK1); assay: biochemical; assay type: biochemical
human POP (HsPOP) = molecular target: T1, human POP (HsPOP) (Homo sapiens, UniProt P48147); assay: biochemical
T1 sequence (P48147 1-710): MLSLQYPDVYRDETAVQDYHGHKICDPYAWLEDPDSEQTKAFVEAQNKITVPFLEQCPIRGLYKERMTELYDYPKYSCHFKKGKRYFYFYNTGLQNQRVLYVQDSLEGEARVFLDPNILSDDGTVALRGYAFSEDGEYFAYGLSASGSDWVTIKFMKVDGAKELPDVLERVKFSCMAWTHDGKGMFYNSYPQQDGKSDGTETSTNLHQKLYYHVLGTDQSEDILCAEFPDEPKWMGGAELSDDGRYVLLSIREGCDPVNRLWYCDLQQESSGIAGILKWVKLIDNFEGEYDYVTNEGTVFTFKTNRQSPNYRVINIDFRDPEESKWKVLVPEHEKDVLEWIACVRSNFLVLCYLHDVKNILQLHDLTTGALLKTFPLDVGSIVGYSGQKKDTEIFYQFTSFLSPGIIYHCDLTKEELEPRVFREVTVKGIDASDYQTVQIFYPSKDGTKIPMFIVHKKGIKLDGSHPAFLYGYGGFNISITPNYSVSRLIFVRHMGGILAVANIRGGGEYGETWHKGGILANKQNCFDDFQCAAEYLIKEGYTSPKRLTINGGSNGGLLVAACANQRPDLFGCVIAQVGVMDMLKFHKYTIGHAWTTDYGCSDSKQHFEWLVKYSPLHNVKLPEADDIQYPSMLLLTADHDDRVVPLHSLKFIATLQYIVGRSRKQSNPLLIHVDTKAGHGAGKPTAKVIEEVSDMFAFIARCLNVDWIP

[2] = system: adult schistosomes (cleavage of angiotensin I and bradykinin); assay: Hydrolysis of peptide hormones by cultured schistosomes (MALDI-TOF); assay type: cell-based, Schistosoma mansoni; conditions: live adults in culture; 16 h; mass spectrometry
Method: Five adult schistosome pairs were placed into clear, 24-well, flat-bottom plates (Costar) containing 500 μL Basch Medium […] [28], supplemented with 2.5% FBS, 100 units/mL penicillin and 100 μg/mL streptomycin. Human angiotensin I or bradykinin in 5 μL water was added to a final concentration of 100 μM and the incubation continued for 16 h at 37°C under a 5% CO2 atmosphere. In control experiments, the peptides were cultivated in the same system in the absence of schistosomes. After incubation, the samples were ZipTiped and the resulting fragments were analyzed using MALDI-TOF performed on an UltrafleXtreme (Bruker Daltonik) operated in reflectron mode with an acceleration voltage of 25 kV and a pulsed ion extraction of 120 ns. Desorption and ionization were achieved using a Smartbeam II laser. α-Cyano-4-hydroxycinnamic acid was used as a matrix. The data were acquired from m/z 220 to 3700 and analyzed with the FlexAnalysis 3.3 software (Bruker Daltonik). The mass spectra were externally calibrated using a Peptide Calibration Standard I (Bruker Daltonik) and averaged from 3000 laser shots.

[3] = system: SmPOP activity of live NTS and adult schistosomes; assay: Fluorescence SmPOP activity assay with cultured schistosomes; assay type: cell-based, Schistosoma mansoni; conditions: 1 μM inhibitor; NTS or adult worms in culture
Method: Adult worms (3 pairs) or approximately 150 NTS were incubated at 37°C and 5% CO2 for 2 days in 200 μL of Basch Medium 169 containing 5% FBS, 100 units/mL of penicillin and 100 μg/mL using black clear bottomed 96-well microplates (Costar). After incubation, half of the medium (100 μl) was transferred to an empty well leaving the parasites in the remaining half. Then SmPOP activity was measured in both wells upon the addition of 20 μL of Z-Gly-Pro-AMC (prepared as a 250 μM stock in Basch Medium 169) and in the presence or absence of 1 μM of the POP inhibitor, Z-Ala-Pro-CMK. Controls contained medium alone.

O=C[C@@H]1CCCN1C(=O)[C@@H]1CCCN1C(=O)OCc1ccccc1 [Z-Pro-Pro-CHO, benzyloxycarbonyl-L-prolyl-L-prolinal] (Cbz-Pro-Pro-aldehyde)
Severity of phenotype against parasite, Grade [1]: no effect
Inhibition of rSmPOP activity (in words) (recombinant SmPOP): completely inhibited
IC50 (recombinant SmPOP; read-out: IC50 (μM) SmPOP): 0.16 ± 0.03 µM
inhibition at 1 µM (recombinant SmPOP; read-out: Inhibition (%)): 100 ± 1%

O=C(O)[C@@H]1CCCN1C(=O)[C@@H]1CCCN1C(=O)OCc1ccccc1 [Z-Pro-Pro-OH] (Cbz-Pro-Pro-OH)
Inhibition (%) (recombinant SmPOP; 100 µM): 37.6±2.1%

O=S(=O)(F)Cc1ccccc1 [PMSF, phenylmethylsulfonyl fluoride]
Inhibition of rSmPOP activity (in words) (recombinant SmPOP): Partial inhibition
Inhibition (%) (recombinant SmPOP; 1000 µM): 47.6±1.6%

CC(=O)N[C@@H](CC(C)C)C(=O)N[C@@H](CC(C)C)C(=O)N[C@H](C=O)CCCNC(=N)N [Leupeptin]
inhibition at 20 µM (recombinant SmPOP): 2.3 ± 1.2%

CC(C)C[C@H](NC(=O)[C@@H](O)[C@H](N)Cc1ccccc1)C(=O)O [Bestatin]
inhibition at 1 µM (recombinant SmPOP; read-out: Inhibition (%)): 2.3 ± 2.1%

Cc1ccc(S(=O)(=O)N[C@@H](Cc2ccccc2)C(=O)CCl)cc1 [TPCK, N-p-Tosyl-L-phenylalanine chloromethyl ketone]
Inhibition of rSmPOP activity (in words) (recombinant SmPOP): Partial inhibition
Inhibition (%) (recombinant SmPOP; 1 µM): 67.2±6.2%

NCCCC[C@H](NC(=O)OCc1ccccc1)C(=O)N1CCC[C@H]1C=O [Z-Lys-Pro-CHO] (Cbz-Lys-Pro-aldehyde)
Severity of phenotype against parasite, Grade [1]: I
IC50 (recombinant SmPOP; read-out: IC50 (μM) SmPOP): 3 ± 0.6 µM
IC50 (human POP (HsPOP); read-out: IC50 (μM) HsPOP): 7.2 ± 0.6 µM

Cl.NCCc1ccc(S(=O)(=O)F)cc1 [Pefabloc SC]
Inhibition of rSmPOP activity (in words) (recombinant SmPOP): Partial inhibition; also recorded: only weakly
Inhibition (%) (recombinant SmPOP; 1000 µM): 12.0±3.1%

O=C[C@@H]1CCCN1C(=O)CNC(=O)OCc1ccccc1 [Z-Gly-Pro-CHO] (Cbz-Gly-Pro-aldehyde)
IC50 (recombinant SmPOP; read-out: IC50 (μM) SmPOP): 6.1 ± 0.4 µM

Cc1ccc(S(=O)(=O)N[C@@H](CCCCN)C(=O)CCl)cc1 [TLCK, Nα-Tosyl-L-lysine chloromethyl ketone]
Inhibition of rSmPOP activity (in words) (recombinant SmPOP): Partial inhibition
Inhibition (%) (recombinant SmPOP; 1 µM): 38.3±1.2%

CC(C)CC(=O)N[C@H](C(=O)N[C@H](C(=O)N[C@@H](CC(C)C)[C@@H](O)CC(=O)N[C@@H](C)C(=O)N[C@@H](CC(C)C)[C@@H](O)CC(=O)O)C(C)C)C(C)C [Pepstatin A] (Isovaleryl-VV[Sta]A[Sta]-OH)
inhibition at 1 µM (recombinant SmPOP): 7.3 ± 3.5%

O=C[C@@H]1CCCN1C(=O)[C@H](Cc1ccc(O)cc1)NC(=O)OCc1ccccc1 [Z-Tyr-Pro-CHO] (Cbz-Tyr-Pro-aldehyde)
IC50 (recombinant SmPOP; read-out: IC50 (μM) SmPOP): 4.4 ± 0.4 µM
IC50 (human POP (HsPOP); read-out: IC50 (μM) HsPOP): 11.4 ± 0.7 µM

N=C(N)NCCC[C@H](NC(=O)OCc1ccccc1)C(=O)N1CCC[C@H]1C(=O)CCl [Z-Arg-Pro-CMK] (Cbz-Arg-Pro-CH2Cl)
IC50 (recombinant SmPOP; read-out: IC50 (μM) SmPOP): 0.0029 ± 0.0001 µM
IC50 (human POP (HsPOP); read-out: IC50 (μM) HsPOP): 0.0048 ± 0.0006 µM

C[C@H](NC(=O)OCc1ccccc1)C(=O)N1CCC[C@H]1C(=O)CCl [Z-Ala-Pro-CMK, Z-Ala-Pro-chloromethyl ketone] (Cbz-Ala-Pro-CH2Cl)
Fragmentation of angiotensin I and bradykinin by adult parasites in the presence of inhibitor [2]: abolished
Inhibition of rSmPOP activity (in words) (recombinant SmPOP): completely inhibited
inhibition at 1 µM (recombinant SmPOP): 100 ± 3%
IC50 (recombinant SmPOP; read-out: IC50 (μM) SmPOP): 0.0032 ± 0.0004 µM
IC50 (human POP (HsPOP); read-out: IC50 (μM) HsPOP): 0.0168 ± 0.0046 µM
Cleavage of Z-Gly-Pro-AMC by live NTS or adult schistosomes in the presence of inhibitor [3]: abolished

CC(C)[C@H](NC(=O)[C@H](CCCNC(=N)N)NC(=O)N[C@@H](Cc1ccccc1)C(=O)O)C(=O)N[C@H](C=O)CCCNC(=N)N [Antipain] ({Phe-CO}-Arg-Val-Arg-aldehyde)
inhibition at 20 µM (recombinant SmPOP): 32.4 ± 1.4%

O=c1oc(Cl)c(Cl)c2ccccc12 [3,4-dichloroisocoumarin]
Inhibition of rSmPOP activity (in words) (recombinant SmPOP): Partial inhibition
inhibition at 100 µM (recombinant SmPOP): 77.3 ± 0.6%

O=C([C@@H]1C[C@@H](O)CN1C(=O)CCCOc1ccccc1/C=C/c1ccccc1)N1CCSC1 [SUAM 14746]
Severity of phenotype against parasite, Grade [1]: no effect
IC50 (recombinant SmPOP; read-out: IC50 SmPOP): 0.092 µM
IC50 (human POP (HsPOP); read-out: IC50 human POP): 0.083 µM

N=C(N)NCCC[C@H](NC(=O)OCc1ccccc1)C(=O)N1CCC[C@H]1C=O [Z-Arg-Pro-CHO] (Cbz-Arg-Pro-aldehyde)
IC50 (recombinant SmPOP; read-out: IC50 (μM) SmPOP): 1.3 ± 0.3 µM
IC50 (human POP (HsPOP); read-out: IC50 (μM) HsPOP): 2.4 ± 0.2 µM

O=C(O)CN(CCN(CC(=O)O)CC(=O)O)CC(=O)O [EDTA]
Inhibition (%) (recombinant SmPOP; 1000 µM): 3.8±2.3%

CC(C)C[C@H](NC(=O)[C@H]1O[C@@H]1C(=O)O)C(=O)NCCCCN=C(N)N (relative stereo) [E64, trans-Epoxysuccinyl-L-leucylamido(4-guanidino)butane]
Inhibition (%) (recombinant SmPOP; 10 µM): 6.5±6.1%

O=C(O)[C@@H]1CCCN1C(=O)OCc1ccccc1 [Z-Pro-OH]
Inhibition (%) (recombinant SmPOP; 100 µM): 41.1±1.8%

C[C@H](NC(=O)OCc1ccccc1)C(=O)N1CCC[C@H]1C=O [Z-Ala-Pro-CHO] (Cbz-Ala-Pro-aldehyde)
IC50 (recombinant SmPOP; read-out: IC50 (μM) SmPOP): 3.1 ± 0.2 µM
IC50 (human POP (HsPOP); read-out: IC50 (μM) HsPOP): 6.1 ± 0.3 µM

N=C(N)c1ccccc1 [Benzamidine]
Inhibition of rSmPOP activity (in words) (recombinant SmPOP): only weakly
inhibition at 10 µM (recombinant SmPOP): 3.7 ± 1.1%

CC(C)c1ccc(C(=O)c2cccs2)c(SCCCCCCCCN(C)C)n1 [Y-29794 oxalate, 2-[[8-(Dimethylamino)octyl]thio]-6-(1-methylethyl)-3-pyridinyl-2-thienylmethanone oxalate]
IC50 (recombinant SmPOP; read-out: IC50 (μM) SmPOP): 8.6 ± 0.4 µM
IC50 (human POP (HsPOP); HsPOP, Z-Gly-Pro-AMC, pH 8.0, mean ± S.D., n=3, read-out: IC50 (μM) HsPOP): 0.49 ± 0.03 µM

B1: STI: soybean trypsin inhibitor, protein inhibitor of serine peptidases (protein, UniProt P01070 25-205, looked up)
Trypsin inhibitor A: DFVLDNEGNPLENGGTYYILSDITAFGGIRAAPTGNERCPLTVVQSRNELDKGIGTIISSPYRIRFIAEGHPLSLKFDSFAVIMLCVGIPTEWSVVEDLPEGPAVKIGENKDAMDGWFRLERVSDDEFNNYKLVFCPQQAEDDKCGDIGISIDHDDGTRRLVVSKNKPLVVQFQKLDKESL
Inhibition of rSmPOP activity (in words) (recombinant SmPOP): neither affected
Inhibition (%) (recombinant SmPOP; 10 µM): 12.3±3.2%
